Results published in patent US8460900B2, “Methods to degrade sludge from pulp and paper manufacturing” (Buckman Laboratories International, Inc., priority 2010, dated 2013).

System: CELLIC® CTec enzyme
Test: Cellulase activity of enzyme-surfactant solutions, carboxymethyl cellulose as substrate
Type: biochemical
Settings: Table 3: 5 wt % surfactant + 10 wt % CELLIC CTec; for % Activity Increase: versus enzyme without surfactant; for Cellulase Activity (u/g): CMC substrate
Experimental: The experiments were set up for evaluating the effects of surfactants on enzymatic activity of CELLIC® CTec enzyme. The enzyme, surfactant, and water were mixed to form a solution containing 5 wt % surfactant and 10 wt % enzyme. For example, 1.0 g of CELLIC® CTec, 0.5 g of PLURONIC F108, and 8.5 g of deionized water were mixed to produce a solution containing 10 wt % enzyme and 5 wt % surfactant. The resulted enzyme-surfactant solutions were tested for cellulase activity. Carboxymethyl cellulose was used as the assay substrate. A control solution containing 10 wt % enzyme without surfactant was included for comparison.
Five PLURONIC surfactants with different HLB values are evaluated for their effects on the enzymatic activity of CELLIC® CTec in water solution. Each surfactant was mixed with the enzyme in water. The resulting solution was then assayed for cellulase activity using carboxymethyl cellulose (CMC) as the substrate. […] F108 enhanced the enzymatic activity by 22.3%.

| Substance | % Activity Increase [%] | Cellulase Activity (u/g) |
| --- | --- | --- |
| Sorbitan mono-oleate [Sorbitan mono-oleate, non-ionic] | −2.3 | 321.5 |
| Cocobis(2-hydroxyethyl)methyl ammonium chloride | 6.9 | 351.6 |
| Sorbitan mono-oleate ester [Sorbitan mono-oleate ester, non-ionic] | 7.3 | 353.1 |
